Results on 51 compounds are retold here after ChEMBL document CHEMBL1201862, “PubChem BioAssay data set” (2004).

Structures are written as SMILES. Values joined by “and” are separate entries in the source; they are usually repeats but may differ in a detail not shown here. Equal entries are not always repeated. Active and inactive are the calls of the source. Bounds are passed on as bounds.

Chain of Cytochrome P450 2C19 (P33261 whole entry): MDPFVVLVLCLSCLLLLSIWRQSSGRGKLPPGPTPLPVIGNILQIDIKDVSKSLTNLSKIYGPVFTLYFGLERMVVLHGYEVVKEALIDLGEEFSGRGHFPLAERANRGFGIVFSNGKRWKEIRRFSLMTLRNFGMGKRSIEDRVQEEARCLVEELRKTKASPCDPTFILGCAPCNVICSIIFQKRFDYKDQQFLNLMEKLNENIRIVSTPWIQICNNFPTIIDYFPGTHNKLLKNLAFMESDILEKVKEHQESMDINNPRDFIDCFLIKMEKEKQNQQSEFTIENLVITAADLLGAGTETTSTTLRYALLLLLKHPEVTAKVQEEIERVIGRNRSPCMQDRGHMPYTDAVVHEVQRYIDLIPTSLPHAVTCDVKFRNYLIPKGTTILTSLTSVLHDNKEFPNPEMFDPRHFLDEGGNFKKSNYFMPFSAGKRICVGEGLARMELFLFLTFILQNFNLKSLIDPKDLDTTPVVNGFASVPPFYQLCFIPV

Tested on in the first series: not listed separately
Description: viability of uninfected HEp-2 cells – cell-based, HTS, cytotoxicity control for RSV inhibitor project, dose response (AID 2410). The series is classed as functional. To be noted: human respiratory syncytial virus.
Turning to `CCN(c1ccccc1)S(=O)(=O)c1ccc(OC)c(NC(=O)CNCCc2ccccc2)c1`, the CC50 is 14.4 µM (active).

Regarding `CCOc1cc2c(cc1OCC)-n1cccc1C(c1cc(OC)ccc1F)NC2` (stereo not drawn), the CC50 was 39.8 µM (active).

As for `C1=NCCc2c1[nH]c1ccccc21.[O-][Cl+3]([O-])([O-])O`, the CC50 was 10.3 µM (active).

Consider `CCS(=O)(=O)Nc1ccc(C2=NN(C(=O)c3ccco3)C(c3cccc(F)c3)C2)cc1` (stereo not drawn), for which the CC50 is 32.9 µM (active).

For the compound `COc1ccc(C(C(=O)NC2CCCCC2)N(C(=O)Cc2c[nH]c3ccccc23)c2ccccc2)cc1OC` (stereo not drawn), the CC50 is 27.2 µM (active).

With `CC(=O)Nc1cccc(-c2csc(Nc3ccc(Cl)cn3)n2)c1`, the CC50 was 9.11 µM (active).

As to `Cc1ccc(C2(C(F)(F)F)N=C3Sc4cc(C)cc(C)c4N3C(=O)N2)cc1` (stereo not drawn), the CC50 was 23 µM (active).

Regarding `Cc1ccc(S(=O)(=O)Nc2cccc(-c3ccc(N4CCCCCC4)nn3)c2)cc1C`, the CC50 is 25.8 µM (active).

Tested on in the next series: not listed separately
Description: luciferase reporter signal suppression in cells – H4 neuroglioma cells, luminescence, dose response (AID 1990). Type of series: functional, cell-based.
Conditions: not given
`Cc1cc(C)c(NC(=O)CCN2CCN(Cc3ccccc3)CC2)c(C)c1`: the EC50 is on record as > 120 µM (not active).

With `Nc1ncccc1OCc1cccc(C(F)(F)F)c1`, the EC50 is given as > 120 µM (not active).

Regarding `Cc1cc(C)c2cc(CN(CCO)C(=O)Nc3ccc(F)cc3)c(O)nc2c1`, the concentration giving a half-maximal response (EC50) is 18.3 µM (active).

Tested on in a further series: not listed separately
Description: Luminescence Cell-Based Dose Response HTS to Identify Inhibitors of 5'UTR Stem-Loop Driven Prion Protein mRNA Translation in H4 Neuroglioblastoma Cells. [Related pubchem assays: 1827 (Project Summary), 1813 (Primary HTS)].
Conditions: not given
Type of series: functional.
For `Cc1cc(C)c(NC(=O)CCN2CCN(Cc3ccccc3)CC2)c(C)c1`, the EC50 is reported as > 120 µM (not active).

In the case of `Nc1ncccc1OCc1cccc(C(F)(F)F)c1`, the EC50 was > 120 µM (not active).

As to `Cc1cc(C)c2cc(CN(CCO)C(=O)Nc3ccc(F)cc3)c(O)nc2c1`, the EC50 was > 120 µM (not active).

For `CC(=O)c1ccc(N=Nc2ccc(N(C)C)cc2)cc1`, the EC50 was 4.44 µM (active).

Tested on in the next series: not listed separately
Description: alpha-synuclein stem-loop luciferase translation blockers – H4 neuroglioma cells, luminescence, confirmation (AID 1988). Type of series: functional, cell-based.
Conditions: not given
Consider `Cc1cc(C)c(NC(=O)CCN2CCN(Cc3ccccc3)CC2)c(C)c1`, for which the EC50 is on record as > 120 µM (not active).

For `Nc1ncccc1OCc1cccc(C(F)(F)F)c1`, the EC50 was > 120 µM (not active).

On to `Cc1cc(C)c2cc(CN(CCO)C(=O)Nc3ccc(F)cc3)c(O)nc2c1`, for which the EC50 was > 120 µM (not active).

Consider `CC(=O)c1ccc(N=Nc2ccc(N(C)C)cc2)cc1`, for which the EC50 is 4.11 µM (inconclusive).

Tested on in a further series: not listed separately
Description: Trypanosoma cruzi growth suppression in host cells – NIH3T3 host cells, beta-gal luminescence, confirmation (AID 2044).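 Note: intracellular parasites grown in NIH/3T3 mouse fibroblasts as host cells; luminescent beta-galactosidase reporter signal from transgenic T. cruzi replicating inside host cells; inhibitors lower the luminescence signal.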 The series is classed as functional, cell-based.
Conditions: not given
As for `CCN(c1ccccc1)S(=O)(=O)c1ccc(OC)c(NC(=O)CNCCc2ccccc2)c1`, the EC50 was 1.72 µM (active).

Tested on in a further series: not listed separately
Description: NIH3T3 cell viability loss – ATP luminescence, mouse fibroblasts, counter-screen, dose response (AID 2010).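 Note: cells exposed to compound for about 90 hours before reading.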 The series is classed as functional, cell-based. To be noted: NIH3T3.
As for `CCN(c1ccccc1)S(=O)(=O)c1ccc(OC)c(NC(=O)CNCCc2ccccc2)c1`, the EC50 was > 60 µM (not active).

Tested on in another series: not listed separately
Description: cells.
Conditions: not given
The series is classed as functional.
`COc1cccc(C(=O)OCC(=O)c2ccc(Br)s2)c1OC`: the IC50 is 29.7 µM (active).

With `Cc1cccc(Cn2ccc(NC(=O)c3ccc4c(c3)OCO4)n2)c1`, the IC50 was 2.33 µM (active).

Regarding `CC1CCN(C(=O)c2ccc(-c3ccccc3Cl)o2)CC1`, the IC50 was 33.8 µM (active).

`COc1ccc2oc(=O)c(/C(C)=N/NC(=O)c3ccncc3)cc2c1`: the IC50 is 1.31 µM (active).

For `CCCOc1ccc(N2CC(C(=O)Nc3ccccc3F)CC2=O)cc1` (stereo not drawn), the IC50 was 32.1 µM (active).

As for `CC(C)(C)NC(=O)c1ccc(NC(=O)c2ccccc2-c2ccccc2C(=O)O)cc1`, the IC50 is 6.42 µM (active).

Take `CC(C)OC(=O)COc1ccc(-c2ccccc2)cc1`: the IC50 is 6.13 µM (active).

Another series has as its target Cytochrome P450 2C19 (Homo sapiens, UniProt P33261). Description: Cytochrome panel assay with activity outcomes. Panel member name: p450-cyp2c19 Compounds with AC50 equal or less than 10 uM are considered active. Type of series: functional.
Conditions: not given
For the compound `CCNCCCNCCCNCCCNCC` [BIS(ETHYL)NORSPERMINE], the AC50 result is on record as “inconclusive”.

The same series, now with this note: read-out: AC50.
As for `COc1ccc(/N=C/c2ccc(CNS(=O)(=O)c3ccc(Cl)cc3)o2)cc1`, the AC50 was 11.2 µM (inconclusive).

On to `N[C@@](C(=O)O)(c1ccc(P(=O)(O)O)cc1)C1CC1`, for which the AC50 is 25.1 µM (inconclusive).

Turning to `CN(C)C(=O)c1ccc(-c2nccc(-n3ccnc3)n2)cc1`, the AC50 is 39.8 µM (inconclusive).

In the case of `Cn1cccc1CNCCc1ccccc1`, the AC50 is 14.1 µM (inconclusive).

On to `CN(C)c1ncnc2ccc(-c3ccoc3)cc12`, for which the AC50 was 39.8 µM (inconclusive).

As for `COc1ccc(-n2c(=O)c(-c3cccc(Cl)c3)nc3cncnc32)cc1`, the AC50 was 39.8 µM (inconclusive).

With `Cc1c(/C=N/CCOCc2ccccc2)cnn1C`, the AC50 is 22.4 µM (inconclusive).

Consider `Nc1nc(Br)c2c(F)cccc2c1-c1ccc(F)cc1`, for which the AC50 was 1.12 µM (inconclusive).

Consider `COc1cc2nc3c(c([Si](C)(C)C(C)(C)C)c2cc1OC)Cn1c-3cccc1=O`, for which the AC50 was 39.8 µM (inconclusive).

As to `CC1CCCC(NC(=O)c2nnc(O)c3ccccc23)C1C` (stereo not drawn), the AC50 was 20 µM (inconclusive).

Consider `C[C@H](CC(C#N)(c1ccccc1)c1ccccc1)N1CCCCC1`, for which the AC50 was 1.58 µM (inconclusive).

As to `Cn1c(=O)c(-c2ccccc2)nc2cnc(Nc3ccccc3)nc21`, the AC50 was 0.0398 µM (inconclusive).

The target in a further series is Cytochrome P450 2D6 (Homo sapiens, UniProt P10635).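 Note: CYP2D6 member of a cytochrome P450 panel assay.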
Chain of Cytochrome P450 2D6 (P10635 whole entry): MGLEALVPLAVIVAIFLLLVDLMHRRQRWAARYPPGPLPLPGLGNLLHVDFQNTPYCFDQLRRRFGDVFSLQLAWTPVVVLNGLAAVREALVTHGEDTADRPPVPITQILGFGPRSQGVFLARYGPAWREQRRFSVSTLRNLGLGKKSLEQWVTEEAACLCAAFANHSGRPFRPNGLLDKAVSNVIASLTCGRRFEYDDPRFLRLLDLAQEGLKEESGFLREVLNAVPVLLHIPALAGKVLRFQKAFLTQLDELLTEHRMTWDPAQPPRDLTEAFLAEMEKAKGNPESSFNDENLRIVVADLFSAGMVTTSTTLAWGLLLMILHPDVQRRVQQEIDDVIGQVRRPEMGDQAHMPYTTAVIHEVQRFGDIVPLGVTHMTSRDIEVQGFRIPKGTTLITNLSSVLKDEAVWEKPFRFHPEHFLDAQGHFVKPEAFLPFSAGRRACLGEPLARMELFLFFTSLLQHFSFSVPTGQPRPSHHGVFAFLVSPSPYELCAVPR
Experiment: not given
Conditions: not given
Take `O=C(Cc1ccc(Br)cc1)Nc1ccccc1Sc1ccccc1`: the AC50 was 11.2 µM (inconclusive).

`CN(C)C(=O)c1ccc(-c2nccc(-n3ccnc3)n2)cc1`: the AC50 is 39.8 µM (inconclusive).

As to `N#Cc1cc(-c2ccccc2)cnc1Sc1ccc(Cl)cc1`, the AC50 was 10 µM (inconclusive).

In the case of `CCN(CC)CCOC(=O)c1ccc(N)cc1` [PROCAINE], the AC50 was 10 µM (inconclusive) and 39.8 µM (inconclusive).

For `Cc1c(/C=N/CCOCc2ccccc2)cnn1C`, the AC50 was 25.1 µM (inconclusive).

In the case of `COc1ccccc1N1CCN(C(=O)C(NS(=O)(=O)c2cccs2)c2ccccc2)CC1` (stereo not drawn), the AC50 is 15.8 µM (inconclusive).

Turning to `CN(C)c1ncc2ncc(=O)n(C)c2n1`, the AC50 is 20 µM (inconclusive).

With `Cc1ccccc1-c1nc(NC2CC2)c2ccccc2n1`, the AC50 is 39.8 µM (inconclusive).

As for `COc1cccc(NC(=S)N(CCc2nc3cc(C)c(C)cc3[nH]2)Cc2cccnc2)c1`, the AC50 was 0.126 µM (inconclusive).

Consider `CCOc1ccc2c(ccc(/C=C/c3cc(C)c4cccnc4c3O)[n+]2C)c1`, for which the AC50 was 3.16 µM (inconclusive).

With `COc1ccc(S(=O)(=O)N2CC3C4C=CC(C4)C3C2)cc1` (stereo not drawn), the AC50 is 15.8 µM (inconclusive).

With `CNC(=O)C(=O)NCCc1ccc(Cl)cc1`, the AC50 is 28.2 µM (inconclusive).

Consider `COc1ccccc1CCn1c(=O)c(CCc2ccccc2)nc2cncnc21`, for which the AC50 was 25.1 µM (inconclusive).

The target of a further series is T1, Cytochrome P450 1A2 (Homo sapiens, UniProt P05177).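 Note: PubChem cytochrome P450 panel assay, CYP1A2 panel member.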
T1 sequence (P05177 whole entry): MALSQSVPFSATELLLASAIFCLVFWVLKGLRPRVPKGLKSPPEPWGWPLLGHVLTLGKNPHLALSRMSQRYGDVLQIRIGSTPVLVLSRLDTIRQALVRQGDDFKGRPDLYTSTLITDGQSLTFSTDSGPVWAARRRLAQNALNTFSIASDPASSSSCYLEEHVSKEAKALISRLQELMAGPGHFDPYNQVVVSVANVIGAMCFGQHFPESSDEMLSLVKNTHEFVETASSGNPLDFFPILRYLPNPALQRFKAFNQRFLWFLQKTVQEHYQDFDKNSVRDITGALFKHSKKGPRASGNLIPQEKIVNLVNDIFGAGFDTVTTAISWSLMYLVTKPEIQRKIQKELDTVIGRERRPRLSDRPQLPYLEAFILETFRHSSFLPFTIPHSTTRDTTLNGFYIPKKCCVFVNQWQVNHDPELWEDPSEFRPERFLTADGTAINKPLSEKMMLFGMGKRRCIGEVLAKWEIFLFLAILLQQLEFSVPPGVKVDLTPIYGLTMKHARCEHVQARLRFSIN
Experiment: not given
Conditions: not given
For `COc1ccc(/N=C/c2ccc(CNS(=O)(=O)c3ccc(Cl)cc3)o2)cc1`, the AC50 is 25.1 µM (inconclusive).

For the compound `N[C@@](C(=O)O)(c1ccc(P(=O)(O)O)cc1)C1CC1`, the AC50 is 50.1 µM (inconclusive).

As for `CCc1cc2c(=O)c(-c3cnn(-c4ccccc4)c3)coc2c(CN2CCOCC2)c1O`, the AC50 is 15.8 µM (inconclusive).

On to `Cc1cc(C)nc(SCC(=O)Nc2ccccc2[N+](=O)[O-])n1`, for which the AC50 is 17.8 µM (inconclusive).

For the compound `CN1CCN(c2ncc3ncc(=O)n(Cc4ccc(F)cc4)c3n2)CC1`, the AC50 was 25.1 µM (inconclusive).

For `CCCOc1ccccc1C1CC(=O)NC(C)=C1C(=O)OCC(C)C` (stereo not drawn), the AC50 was 11.2 µM (inconclusive).

In the case of `CC(C)(C(=O)c1cccnc1)c1cccnc1` [METYRAPONE], the AC50 is 12.6 µM (inconclusive).

Regarding `O=c1c(-c2ccc(Cl)cc2)nc2cnc(N3CCOCC3)nc2n1C1CC1`, the half-maximal activity concentration (AC50) was 1.26 µM (inconclusive).

In the case of `COc1cc(-c2nnc(SCC(=O)Nc3ccc4c(c3)OCCO4)o2)cc(OC)c1OC`, the AC50 was 15.8 µM (inconclusive).

For the compound `COc1ccccc1N1CCN(C(=O)C(NS(=O)(=O)c2cccs2)c2ccccc2)CC1` (stereo not drawn), the AC50 is 2.51 µM (inconclusive).

Regarding `CCOc1ccc2c(ccc(/C=C/c3cc(C)c4cccnc4c3O)[n+]2C)c1`, the AC50 was 6.31 µM (inconclusive).

Consider `CNc1ncncc1-c1ccc(C(=O)N(C)C)cc1`, for which the AC50 was 15.8 µM (inconclusive).

The target in the next series is Cytochrome P450 3A4 (Homo sapiens, UniProt P08684).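 Note: CYP3A4 tested as one member of a cytochrome P450 panel screen.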
Chain of Cytochrome P450 3A4 (P08684 whole entry): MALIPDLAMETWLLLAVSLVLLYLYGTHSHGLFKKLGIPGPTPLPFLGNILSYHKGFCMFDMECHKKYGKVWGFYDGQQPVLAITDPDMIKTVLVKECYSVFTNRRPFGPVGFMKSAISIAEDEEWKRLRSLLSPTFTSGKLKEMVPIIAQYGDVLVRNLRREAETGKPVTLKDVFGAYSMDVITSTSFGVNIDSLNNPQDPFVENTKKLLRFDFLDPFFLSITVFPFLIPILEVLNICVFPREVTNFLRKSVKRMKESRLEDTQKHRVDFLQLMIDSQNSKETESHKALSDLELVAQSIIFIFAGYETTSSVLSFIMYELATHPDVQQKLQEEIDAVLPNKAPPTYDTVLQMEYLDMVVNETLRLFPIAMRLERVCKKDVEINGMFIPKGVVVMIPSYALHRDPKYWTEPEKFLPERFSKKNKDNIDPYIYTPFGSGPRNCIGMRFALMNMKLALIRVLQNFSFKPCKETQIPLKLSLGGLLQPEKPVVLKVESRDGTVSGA
Experiment: not given
Conditions: not given
As for `COc1ccc(/N=C/c2ccc(CNS(=O)(=O)c3ccc(Cl)cc3)o2)cc1`, the AC50 is 31.6 µM (inconclusive).

In the case of `CN(C)C(=O)c1ccc(-c2nccc(-n3ccnc3)n2)cc1`, the AC50 is 3.16 µM (inconclusive).

Regarding `N#Cc1cc(-c2ccccc2)cnc1Sc1ccc(Cl)cc1`, the AC50 is 12.6 µM (inconclusive).

On to `Cn1cccc1CNCCc1ccccc1`, for which the AC50 is 31.6 µM (inconclusive).

In the case of `CN(C)c1ncnc2ccc(-c3ccoc3)cc12`, the AC50 is 12.6 µM (inconclusive).

For the compound `CN1CCN(c2ncc3ncc(=O)n(Cc4ccc(F)cc4)c3n2)CC1`, the AC50 is 15.8 µM (inconclusive).

As to `C[C@H](CC(C#N)(c1ccccc1)c1ccccc1)N1CCCCC1`, the AC50 was 3.98 µM (inconclusive).
